Experimental data: PubChem BioAssay (NCI)
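Cells were grown in 96-well plates and exposed to each compound for 48 hours at five concentrations; endpoints were interpolated linearly between bracketing concentrations, or set to the highest concentration if not reached. GI50 is the concentration that inhibits growth by half. TGI: total growth inhibition.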

Tests used:
Test in all cases: growth of human tumour cells (NCI), 48 h
LOX IMVI melanoma = test system: LOX IMVI melanoma
786-0 renal = test system: 786-0 renal
RXF 393 renal = test system: RXF 393 renal
SK-MEL-28 melanoma = test system: SK-MEL-28 melanoma
SNB-19 CNS = test system: SNB-19 CNS
OVCAR-8 ovarian = test system: OVCAR-8 ovarian
OVCAR-3 ovarian = test system: OVCAR-3 ovarian
HCT-15 colon = test system: HCT-15 colon
KM12 colon = test system: KM12 colon
UACC-257 melanoma = test system: UACC-257 melanoma
K-562 leukemia = test system: K-562 leukemia
A498 renal = test system: A498 renal
TK-10 renal = test system: TK-10 renal
NCI-H226 lung = test system: NCI-H226 lung
HOP-92 NSCLC = test system: HOP-92 NSCLC
NCI-H522 lung = test system: NCI-H522 lung
A549 NSCLC = test system: A549 NSCLC
SF-295 CNS = test system: SF-295 CNS
CAKI-1 renal = test system: CAKI-1 renal
BT-549 breast = test system: BT-549 breast
SR leukemia = test system: SR leukemia
HOP-62 NSCLC = test system: HOP-62 NSCLC
U251 CNS = test system: U251 CNS
EKVX NSCLC = test system: EKVX NSCLC
HCT-116 colon = test system: HCT-116 colon
COLO 205 colon = test system: COLO 205 colon
NCI-H23 lung = test system: NCI-H23 lung
HCC-2998 colon = test system: HCC-2998 colon
MOLT-4 leukemia = test system: MOLT-4 leukemia
HT29 colon = test system: HT29 colon
SNB-75 CNS = test system: SNB-75 CNS
SK-OV-3 ovarian = test system: SK-OV-3 ovarian
PC-3 prostate = test system: PC-3 prostate
OVCAR-4 ovarian = test system: OVCAR-4 ovarian
UACC-62 melanoma = test system: UACC-62 melanoma
ACHN renal = test system: ACHN renal
MDA-MB-231 breast = test system: MDA-MB-231 breast
M14 melanoma = test system: M14 melanoma
IGROV1 ovarian = test system: IGROV1 ovarian
RPMI-8226 leukemia = test system: RPMI-8226 leukemia
SF-539 CNS = test system: SF-539 CNS
CCRF-CEM leukemia = test system: CCRF-CEM leukemia
DU-145 prostate = test system: DU-145 prostate
SK-MEL-2 melanoma = test system: SK-MEL-2 melanoma
HS 578T breast = test system: HS 578T breast
SW-620 colon = test system: SW-620 colon
NCI/ADR-RES ovarian = test system: NCI/ADR-RES ovarian
SN12C renal = test system: SN12C renal
MALME-3M melanoma = test system: MALME-3M melanoma
SF-268 CNS = test system: SF-268 CNS
NCI-H460 lung = test system: NCI-H460 lung
MDA-MB-468 breast = test system: MDA-MB-468 breast
MDA-MB-435 = test system: MDA-MB-435
SK-MEL-5 melanoma = test system: SK-MEL-5 melanoma
HL-60(TB) leukemia = test system: HL-60(TB) leukemia
MCF7 breast = test system: MCF7 breast
UO-31 renal = test system: UO-31 renal
OVCAR-5 ovarian = test system: OVCAR-5 ovarian
T-47D breast = test system: T-47D breast

Work on `COc1cc(/C=C/C(=O)c2ccc(NC(=O)CN3C(=O)NC(C)(c4ccccc4)C3=O)cc2)cc(OC)c1OC` (stereo not drawn) yielded a GI50 (LOX IMVI melanoma) of 3.09 µM, a TGI (LOX IMVI melanoma) of 13.2 µM and a GI50 (786-0 renal) of 8.43 µM. It also gave a TGI (786-0 renal) of 23.3 µM, a GI50 (RXF 393 renal) of 3.01 µM and a TGI (RXF 393 renal) of 12.2 µM. The GI50 (SK-MEL-28 melanoma) was 14.6 µM, the TGI (SK-MEL-28 melanoma) was 32.1 µM and the GI50 (SNB-19 CNS) was 14.9 µM. For the same compound, the TGI (SNB-19 CNS) was 32.9 µM, the GI50 (OVCAR-8 ovarian) was 5.03 µM and the TGI (OVCAR-8 ovarian) was greater than 100 µM. It also gave a GI50 (OVCAR-3 ovarian) of 4.16 µM, a TGI (OVCAR-3 ovarian) of 21 µM and a GI50 (HCT-15 colon) of 11.7 µM. It also gave a TGI (HCT-15 colon) of 48.9 µM, a GI50 (KM12 colon) of 3.69 µM and a TGI (KM12 colon) of 17.8 µM. It also gave a GI50 (UACC-257 melanoma) of 11.6 µM, a TGI (UACC-257 melanoma) of 28 µM and a GI50 (K-562 leukemia) of 3.16 µM. The TGI (K-562 leukemia) was greater than 100 µM, the GI50 (A498 renal) was 31.6 µM and the TGI (A498 renal) was greater than 100 µM. The GI50 (TK-10 renal) was 46.6 µM, the TGI (TK-10 renal) was greater than 100 µM and the GI50 (NCI-H226 lung) was 19.3 µM. It also gave a TGI (NCI-H226 lung) greater than 100 µM, a GI50 (HOP-92 NSCLC) of 34 µM and a TGI (HOP-92 NSCLC) greater than 100 µM. For the same compound, the GI50 (NCI-H522 lung) was 9 µM, the TGI (NCI-H522 lung) was 23.7 µM and the GI50 (A549 NSCLC) was 4.53 µM. For the same compound, the TGI (A549 NSCLC) was greater than 100 µM, the GI50 (SF-295 CNS) was 14.3 µM and the TGI (SF-295 CNS) was 31.8 µM. It also gave a GI50 (CAKI-1 renal) of 8.66 µM, a TGI (CAKI-1 renal) greater than 100 µM and a GI50 (BT-549 breast) of 4.73 µM. For the same compound, the TGI (BT-549 breast) was 21.2 µM, the GI50 (SR leukemia) was 1.93 µM and the TGI (SR leukemia) was greater than 100 µM. For the same compound, the GI50 (HOP-62 NSCLC) was 15.8 µM, the TGI (HOP-62 NSCLC) was 93.4 µM and the GI50 (U251 CNS) was 2.7 µM. It also gave a TGI (U251 CNS) of 12.4 µM, a GI50 (EKVX NSCLC) of 12.9 µM and a TGI (EKVX NSCLC) of 75.8 µM. The GI50 (HCT-116 colon) was 2.27 µM, the TGI (HCT-116 colon) was 8.61 µM and the GI50 (COLO 205 colon) was 13.7 µM. It also gave a TGI (COLO 205 colon) of 30.4 µM, a GI50 (NCI-H23 lung) of 4.61 µM and a TGI (NCI-H23 lung) of 19.4 µM. The GI50 (HCC-2998 colon) was 2.92 µM, the TGI (HCC-2998 colon) was 8.97 µM and the GI50 (MOLT-4 leukemia) was 2.57 µM. For the same compound, the TGI (MOLT-4 leukemia) was 8.25 µM, the GI50 (HT29 colon) was 3.75 µM and the TGI (HT29 colon) was 13 µM. It also gave a GI50 (SNB-75 CNS) of 5.33 µM, a TGI (SNB-75 CNS) of 84.5 µM and a GI50 (SK-OV-3 ovarian) of 37.4 µM. For the same compound, the TGI (SK-OV-3 ovarian) was greater than 100 µM, the GI50 (PC-3 prostate) was 10.8 µM and the TGI (PC-3 prostate) was greater than 100 µM. The GI50 (OVCAR-4 ovarian) was 13.4 µM, the TGI (OVCAR-4 ovarian) was greater than 100 µM and the GI50 (UACC-62 melanoma) was 11.7 µM. It also gave a TGI (UACC-62 melanoma) of 24.8 µM, a GI50 (ACHN renal) of 13.6 µM and a TGI (ACHN renal) of 46.7 µM. It also gave a GI50 (MDA-MB-231 breast) of 4.52 µM, a TGI (MDA-MB-231 breast) of 25.4 µM and a GI50 (M14 melanoma) of 6.67 µM. For the same compound, the TGI (M14 melanoma) was 22.9 µM, the GI50 (IGROV1 ovarian) was 4.85 µM and the TGI (IGROV1 ovarian) was 25.2 µM. It also gave a GI50 (RPMI-8226 leukemia) of 2.32 µM, a TGI (RPMI-8226 leukemia) of 10.2 µM and a GI50 (SF-539 CNS) of 2.23 µM. For the same compound, the TGI (SF-539 CNS) was 5.69 µM, the GI50 (CCRF-CEM leukemia) was 2.9 µM and the TGI (CCRF-CEM leukemia) was greater than 100 µM. The GI50 (DU-145 prostate) was 3.66 µM, the TGI (DU-145 prostate) was 15 µM and the GI50 (SK-MEL-2 melanoma) was 17.5 µM. It also gave a TGI (SK-MEL-2 melanoma) of 40.7 µM, a GI50 (HS 578T breast) of 32.6 µM and a TGI (HS 578T breast) greater than 100 µM. The GI50 (SW-620 colon) was 4.35 µM, the TGI (SW-620 colon) was 20.8 µM and the GI50 (NCI/ADR-RES ovarian) was greater than 100 µM. It also gave a TGI (NCI/ADR-RES ovarian) greater than 100 µM, a GI50 (SN12C renal) of 12.9 µM and a TGI (SN12C renal) of 42 µM. For the same compound, the GI50 (MALME-3M melanoma) was 14.6 µM, the TGI (MALME-3M melanoma) was 44.3 µM and the GI50 (SF-268 CNS) was 8.39 µM. For the same compound, the TGI (SF-268 CNS) was 90.8 µM, the GI50 (NCI-H460 lung) was 3.93 µM and the TGI (NCI-H460 lung) was 22.7 µM. It also gave a GI50 (MDA-MB-468 breast) of 3.2 µM, a TGI (MDA-MB-468 breast) of 12.6 µM and a GI50 (MDA-MB-435) of 3.64 µM. For the same compound, the TGI (MDA-MB-435) was 47.9 µM, the GI50 (SK-MEL-5 melanoma) was 9.99 µM and the TGI (SK-MEL-5 melanoma) was 21.5 µM. The GI50 (HL-60(TB) leukemia) was 2.26 µM, the TGI (HL-60(TB) leukemia) was 8.23 µM and the GI50 (MCF7 breast) was 3.06 µM. It also gave a TGI (MCF7 breast) of 13.5 µM, a GI50 (UO-31 renal) of 17.3 µM and a TGI (UO-31 renal) of 74.1 µM. The GI50 (OVCAR-5 ovarian) was 10.5 µM, the TGI (OVCAR-5 ovarian) was 26.7 µM and the GI50 (T-47D breast) was 6.56 µM. The TGI (T-47D breast) was 69.9 µM.
